# From EP0643964A2 (priority 1993, dated 1995)
# Read-outs that look alike come from different tables or passages of the source.
# Columns and labels:
# [1] = tested on: Foot-and-mouth disease virus (FMDV); format: in vivo, Swiss mice
# [2] = tested on: patient with an history of ulcerative colitis; experiment: Intravenous treatment of a patient with ulcerative colitis; format: in vivo, human
# Cryptococcus neoformans = experiment: Cryptococcoses in experimentally infected mice; format: in vivo, Swiss mice; details: 0.1 ml 0.2% lidocaine i.p. twice a day
# Procedure: Animals: 5-7 month old female Swiss mice were used. Experimental schedule: mice received by intraperitoneal route 0.5 ml of a suspension of 10⁷ Cryptococcus neoformans grown in Sabureaud medium.
# Two animals of each group (experimental and control groups) were sacrificed at 2, 5 and 10 days post-infection and samples of liver, pancreas, brain, spleen, lung, kidney and bowel were obtained for microscopic examination.
# [3] = tested on: P815 H-^d mastocytoma cells; experiment: Mastocytoma transplanted BALB/c mice, peritoneal cell count; format: in vivo; details: for Cellular count ± STD / I/C: Percentual increment over control growth: Group A
# Procedure: Two groups of BALB/c mice were injected with 15X10⁶ P815 H-^d mastocytoma cells by intraperitoneal route. […] The other group (B) was treated with saline.
# On the third day assay and for the next three days, 5 mice per group were sacrificed. The peritoneal cavity was washed with phosphate buffered saline (PBS) and the ascitic fluid aspirated with syringe and centrifuged for 10 minutes at 500 Xg. The supernatant was then discarded and the cells diluted in 1% Trypan blue were counted on a Neubauer chamber. The cell count for each group can be observed in Table 3.
smiles,measurement,setting,value
CCN(CC)CC(=O)Nc1c(C)cccc1C [lidocaine],PRESENCE OF PMNs,"[1]; 0.1 ml 0.1% i.p., 8am and 8pm day 1 (group E)",80-90%
same,PRESENCE OF PMNs,"[1]; 0.1 ml 0.1% i.p., 8am and 8pm on day 1 and day 2 (group F)",10%
same,PRESENCE OF PMNs,"[1]; 0.1 ml 0.2% i.p., 8am and 8pm day 1 (group C)",30-40%
same,PRESENCE OF PMNs,"[1]; 0.1 ml 0.2% i.p., 8am day 1 only (group B)",60-70%
same,PRESENCE OF PMNs,"[1]; 0.1 ml 0.2% i.p., 8am, 8pm day 1 and 8am day 2 (group D)",30%
same,PRESENCE OF PMNs,"[1]; 0.1 ml 0.4% i.p., 8am day 1 only (group A)",10%
same,PRESENCE OF PMNs,"[1]; 0.1 ml 0.8% lidocaine i.m. twice a day, 24 hours before FMDV infection",10%
same,PRESENCE OF PMNs,[1]; 0.1 ml lidocaine 0.2% i.m. twice a day 2 days (group C),80-90%
same,PRESENCE OF PMNs,[1]; 0.1 ml lidocaine 0.4% i.m. twice a day 2 days (group B),60-70%
same,PRESENCE OF PMNs,[1]; 0.1 ml lidocaine 0.8% i.m. twice a day 2 days (group A),30-50%
same,Microscopic examination of the pancreas,"[1]; groups A (lidocaine endovenous 24 h after FMDV) and C (simultaneous), 48 hours post-infection",minimal inflammatory damage with absence of necrosis
same,Microscopic examination of the pancreas,"[1]; groups A and C, 72 hours post-infection",no pancreatic damage could be found
same,PRESENCE OF PMNs,"[1]; lidocaine concentration 0.1%, i.m. twice a day 2 days",50-60%
same,PRESENCE OF PMNs,"[1]; lidocaine concentration 0.2%, i.m. twice a day 2 days",20-30%
same,PRESENCE OF PMNs,"[1]; lidocaine concentration 0.3%, i.m. twice a day 2 days",10-20%
same,PRESENCE OF PMNs,"[1]; lidocaine concentration 0.4%, i.m. twice a day 2 days",10-20%
same,PRESENCE OF PMNs,"[1]; lidocaine concentration 0.5%, i.m. twice a day 2 days",10-20%
same,PRESENCE OF PMNs,"[1]; oral route, 0.1 ml of 2% solution twice a day 2 days",50-100%
same,PRESENCE OF PMNs,"[1]; oral route, 0.2 ml of 2% solution twice a day 2 days",30-60%
same,PRESENCE OF PMNs,"[1]; oral route, 0.3 ml of 2% solution twice a day 2 days",30-60%
same,PRESENCE OF PMNs,"[1]; oral route, 0.4 ml of 2% solution twice a day 2 days",50%
same,PRESENCE OF PMNs,"[1]; oral route, 0.5 ml. of 2% solution twice a day 2 days",20-30%
same,Diarrhea,"[2]; 4 i.v. doses each 12 hours per week, 4 weeks (5 ml, 2% solution), during the treatment",diarrhea disappeared
same,Colonoscopy,[2]; 5th week,congestive and edematous mucosa; no erosion could be observed
same,histopathological diagnosis,"[2]; biopsy, 5th week",quiescent ulcerative colitis
same,Microscopic examination of organs,Cryptococcus neoformans; 48 hours post-infection,only a generalized vascular congestion
same,Microscopic examination of organs,Cryptococcus neoformans; 5 days post-infection,"discrete mononuclear cell infiltrate in liver parenchyma and swelling of pancreatic tissue, with absence of inflammatory cells"
same,Microscopic examination of organs,Cryptococcus neoformans; day 10 pi,scarce granulomas in hepatic parenchyma
same,Cellular count ± STD,"[3]; 0.1 ml 0.5% lidocaine 24 h after transplant, 48 Hs p-t, control 5.30E+07",2.85E+07 ± 0.78 millions of cells
same,I/C: Percentual increment over control growth,[3]; 48 Hs p-t,-46.18%
same,I/C: Percentual increment over control growth,[3]; 72 Hs p-t,-37.11%
same,Cellular count ± STD,"[3]; 72 Hs p-t, control 1.59E+08",1.00E+08 ± 3.38 millions of cells
same,I/C: Percentual increment over control growth,[3]; 96 Hs p-t,27.15%
same,reduction in the growth rate,"[3]; first 24 hours of lidocaine treatment, decreasing 10% per day afterwards",~50%
